Earlier results on one molecule are cited in PMC11728683, “Colon-Targeted Poly(ADP-ribose) Polymerase Inhibitors Synergize Therapeutic Effects of Mesalazine Against Rat Colitis Induced by 2,4-Dinitrobenzenesulfonic Acid” (Pharmaceutics, 2024).

Details of the data set: method as in PMID 31743034. Conditions: SSZ at an effective dose; cited from earlier work.

In the case of `O=C(O)c1cc(/N=N/c2ccc(S(=O)(=O)Nc3ccccn3)cc2)ccc1O` [SSZ, Sulfasalazine], the “colonic concentrations of 5-ASA after oral administration” value is “millimolar levels”.
